28 compounds from US20240246992A1, “MACROCYCLIC LRRK2 KINASE INHIBITORS” (LES LABORATOIRES SERVIER, priority 2021, published 2024) can be followed below.

For this test, the target named is human recombinant LRRK2 protein (Homo sapiens, UniProt Q5S007). As to the kind of experiment: LRRK2 kinase activity assay (ADP-Glo, LRRKtide peptide). The class given is biochemical. The following applies: human recombinant LRRK2 wt, LRRKtide peptide and ATP, 1 h at 37° C. How it is done: The inhibition of LRRK2 kinase was assessed using human recombinant LRRK2 protein in an in vitro peptide-based kinase assay.
human recombinant LRRK2 protein, sequence (Q5S007 whole entry): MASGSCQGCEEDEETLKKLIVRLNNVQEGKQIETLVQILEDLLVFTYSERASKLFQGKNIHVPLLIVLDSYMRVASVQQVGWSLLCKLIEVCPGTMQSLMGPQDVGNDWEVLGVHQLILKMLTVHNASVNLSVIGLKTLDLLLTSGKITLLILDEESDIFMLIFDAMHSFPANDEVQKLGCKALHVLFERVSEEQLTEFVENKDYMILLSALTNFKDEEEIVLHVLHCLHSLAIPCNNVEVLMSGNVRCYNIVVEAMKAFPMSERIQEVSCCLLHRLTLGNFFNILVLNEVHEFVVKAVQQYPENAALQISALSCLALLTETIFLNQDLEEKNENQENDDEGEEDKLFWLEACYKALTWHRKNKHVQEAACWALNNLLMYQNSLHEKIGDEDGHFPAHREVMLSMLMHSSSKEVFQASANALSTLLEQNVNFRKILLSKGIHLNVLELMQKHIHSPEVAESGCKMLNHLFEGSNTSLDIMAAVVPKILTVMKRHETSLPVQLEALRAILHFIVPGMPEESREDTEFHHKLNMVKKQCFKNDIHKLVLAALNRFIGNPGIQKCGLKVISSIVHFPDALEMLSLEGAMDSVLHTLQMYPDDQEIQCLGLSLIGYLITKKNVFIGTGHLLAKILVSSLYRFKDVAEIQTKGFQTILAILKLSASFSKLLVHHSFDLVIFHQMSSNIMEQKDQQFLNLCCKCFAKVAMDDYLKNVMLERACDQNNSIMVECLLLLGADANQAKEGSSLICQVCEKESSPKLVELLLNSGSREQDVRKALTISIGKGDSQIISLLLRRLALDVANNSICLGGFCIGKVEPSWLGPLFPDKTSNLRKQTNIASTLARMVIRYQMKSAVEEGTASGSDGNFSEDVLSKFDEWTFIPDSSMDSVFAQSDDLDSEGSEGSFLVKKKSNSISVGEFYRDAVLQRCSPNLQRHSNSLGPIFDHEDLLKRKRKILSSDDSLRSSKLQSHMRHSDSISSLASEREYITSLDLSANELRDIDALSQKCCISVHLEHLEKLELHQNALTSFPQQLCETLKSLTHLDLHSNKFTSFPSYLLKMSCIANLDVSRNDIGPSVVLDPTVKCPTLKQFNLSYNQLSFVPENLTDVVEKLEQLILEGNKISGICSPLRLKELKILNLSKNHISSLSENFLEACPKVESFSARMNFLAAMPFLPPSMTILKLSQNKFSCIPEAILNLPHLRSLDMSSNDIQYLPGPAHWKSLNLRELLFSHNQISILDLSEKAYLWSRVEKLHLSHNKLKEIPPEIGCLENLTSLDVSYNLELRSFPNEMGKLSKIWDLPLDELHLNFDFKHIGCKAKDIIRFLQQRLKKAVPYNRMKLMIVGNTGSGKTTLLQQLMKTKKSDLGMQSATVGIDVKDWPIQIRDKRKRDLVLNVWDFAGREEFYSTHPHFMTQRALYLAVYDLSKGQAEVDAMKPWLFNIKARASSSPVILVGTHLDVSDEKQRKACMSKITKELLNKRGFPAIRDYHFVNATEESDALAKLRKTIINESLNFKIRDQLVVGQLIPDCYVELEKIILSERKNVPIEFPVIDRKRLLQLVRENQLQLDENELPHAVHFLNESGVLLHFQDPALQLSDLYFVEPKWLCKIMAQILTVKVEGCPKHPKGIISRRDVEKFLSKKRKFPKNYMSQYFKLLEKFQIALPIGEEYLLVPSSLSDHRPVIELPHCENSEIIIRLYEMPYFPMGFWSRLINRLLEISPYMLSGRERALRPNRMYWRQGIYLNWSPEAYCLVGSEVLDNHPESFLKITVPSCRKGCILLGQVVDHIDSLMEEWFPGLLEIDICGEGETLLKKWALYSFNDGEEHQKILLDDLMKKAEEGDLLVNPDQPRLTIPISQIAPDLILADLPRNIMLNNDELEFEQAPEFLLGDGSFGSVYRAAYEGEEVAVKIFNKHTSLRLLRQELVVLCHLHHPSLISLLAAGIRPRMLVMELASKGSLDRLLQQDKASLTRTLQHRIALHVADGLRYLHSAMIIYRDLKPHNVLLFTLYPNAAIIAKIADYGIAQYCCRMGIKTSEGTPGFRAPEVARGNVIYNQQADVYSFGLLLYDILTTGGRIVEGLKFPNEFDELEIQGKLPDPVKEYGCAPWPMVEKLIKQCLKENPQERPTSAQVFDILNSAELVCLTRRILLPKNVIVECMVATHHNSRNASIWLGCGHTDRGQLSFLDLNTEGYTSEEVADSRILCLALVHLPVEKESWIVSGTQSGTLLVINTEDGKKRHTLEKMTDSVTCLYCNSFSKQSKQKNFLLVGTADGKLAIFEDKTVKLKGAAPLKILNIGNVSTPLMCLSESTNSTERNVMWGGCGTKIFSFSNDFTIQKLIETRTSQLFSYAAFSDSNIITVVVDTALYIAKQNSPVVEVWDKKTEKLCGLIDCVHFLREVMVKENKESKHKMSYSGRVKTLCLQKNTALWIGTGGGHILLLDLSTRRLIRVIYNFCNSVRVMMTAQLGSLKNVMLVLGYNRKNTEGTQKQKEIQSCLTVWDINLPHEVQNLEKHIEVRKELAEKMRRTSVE
LRRK2 Kinase reactions were carried out in 384-well white polystyrene plates in a final volume of 6 μl using ADP-Glo™ Kinase Assay kit (Promega Corp.). Compound and substrates (LRRKtide peptide and ATP) in assay buffer were first dispensed in wells. Kinase reaction was then started by the addition of human recombinant LRRK2 protein. After 1 h-incubation at 37° C., the enzymatic reactions was stopped by the addition of 6 μl of ADP-Glo Reagent-1 and an additional 40-minutes incubation at 23° C. (residual ATP depletion). A final 30-minutes incubation after 12 μL reagent-2 addition (ADP to ATP conversion and luciferin/luciferase reaction) was performed before luminescent signal acquisition (EnVision™ multimode plate reader—PerkinElmer, Inc.). Data from 10 individual concentrations of tested compounds (N=2) were fitted (XLfit™—ID Business Solutions Ltd) to deliver IC50s (compound concentration leading to 50% inhibition of reference enzymatic activity).
The compounds are dissolved to 5 mM in DMSO. When needed, solutions are sonicated in a bath sonicator.
Table 2 provides the pIC50 values of the compounds according to the invention, obtained using the above mentioned kinase assay. Activities are represented as +++, ++ and +, having the following meanings: • «+++» means an IC50<10 nM • «++» means an IC50<100 nM • «+» means an IC50<1 μM • «−» means an IC50>1 μM
A general note: ADP-Glo turns the ADP formed in a reaction into a luminescent signal.
For `Cc1cc2nc(n1)OCCOCC[C@H](C)Nc1ccc3[nH]nc-2c3c1` [Example 40, (13S)-4,13-dimethyl-7,10-dioxa-5,14,19,20,23-pentaazatetracyclo[13.5.2.1^2,6.0^18,21]tricosa-1(20),2(23),3,5,15(22),16,18(21)-heptaene], the IC50 (in general, the concentration that gives 50% inhibition) is < 10 nM.

In the case of `C[C@H]1CCOCCOc2cccc(n2)-c2n[nH]c3ccc(cc23)O1` [Example 28, (13S)-13-methyl-7,10,14-trioxa-19,20,23-triazatetracyclo [13.5.2.1^2,6.0^18,21] tricosa-1(20),2(23),3,5,15(22),16,18(21)-heptaene], the IC50 is < 10 nM.

As for `O=C1COc2cc(cc(N3CCNCC3)c2)-c2n[nH]c3ccc(cc23)OCCCN1` [Example 212, 4-(piperazin-1-yl)-7,14-dioxa-10,19,20-triazatetracyclo [13.5.2.1^2,6.0^18,21]tricosa-1(20),2(23),3,5,15,17,21-heptaen-9-one], the IC50 is < 10 nM.

For the compound `C[C@@H]1CCOCCOc2nccc(n2)-c2n[nH]c3ccc(cc23)O1` [Example 45, (13R)-13-methyl-7,10,14-trioxa-5,19,20,23-tetraazatetracyclo[13.5.2.1^2,6.0^18,21]tricosa-1(20),2(23),3,5, 15(22),16,18(21)-heptaene], the half-inhibitory concentration (IC50) was < 10 nM.

Regarding `C[C@@H]1CCOCC[C@@H](C)n2cc(cn2)-c2n[nH]c3ccc(cc23)O1` [Example 35, (6R,12R)-6,12-dimethyl-9,13-dioxa-4,5,18,19-tetraazatetracyclo[12.5.2.1^2,5.0^17,20]docosa-1(19),2(22),3,14(21),15,17(20)-hexaene], the IC50 was < 10 nM.

Regarding `c1cc2[nH]nc3c2cc1OCCCCCOCCn1cc-3cn1` [Example 108, 8,14-dioxa-4,5,19,20-tetraazatetracyclo[13.5.2.1^2,5.0^18,21]tricosa-1(20),2(23), 3,15(22),16,18(21)-hexaene], the half-maximal inhibitory concentration (IC50) is < 10 nM.

As to `O=C1COc2cccc(c2)-c2n[nH]c3ccc(cc23)OCCN1` [Example 192, 7,13-dioxa-10,18,19-triazatetracyclo[12.5.2.1^2,6.0^17,20]docosa-1(19),2(22),3,5,14(21),15,17(20)-heptaen-9-one], the concentration for half-maximal inhibition (IC50) was < 1000 nM.

For `C[C@@H]1CCOCCCn2ncc(n2)-c2n[nH]c3ccc(cc23)O1` [Example 90, (12R)-12-methyl-9,13-dioxa-4,5,18,19,22-pentaazatetracyclo[12.5.2.1^2,5.0^17,20]docosa-1(19),2(22),3,14(21),15,17(20)-hexaene], the IC50 is < 10 nM.

`COCC1CCOc2ccc3[nH]nc(c3c2)-c2cccc(c2)OCCN1` (single isomer, unassigned) [Example 151, (11S) or (11R)-11-(methoxymethyl)-7,14-dioxa-10,19,20-triazatetracyclo[13.5.2.1^2,6.0^18,21]tricosa-1(20),2(23),3,5,15,17,21-heptaene]: the half-maximal inhibitory concentration (IC50) was < 100 nM.

As to `C[C@@H]1CCOCCOCC2=NC=C(S2)c2n[nH]c3ccc(cc23)O1` [Example 75, (13R)-13-methyl-7,10,14-trioxa-23-thia-4,19,20-triazatetracyclo[13.5.2.1^2,5.0^18,21]tricosa-1(20),2,4,15(22),16,18(21)-hexaene], the half-maximal inhibitory concentration (IC50) was < 10 nM.

In the case of `O=C1COc2cncc(n2)-c2n[nH]c3ccc(cc23)OCCCN1` [Example 193, 7,14-dioxa-4,10,19,20,23-pentaazatetracyclo[13.5.2.1^2,6.0^18,21]tricosa-1(20),2(23),3,5,15(22),16,18(21)-heptaen-9-one], the IC50 was < 10 nM.

Turning to `C[C@@H]1COCCOC[C@H](C)n2cc(cn2)-c2n[nH]c3ccc(cc23)O1` [Example 93, (6S,13R)-6,13-dimethyl-8,11,14-trioxa-4,5,19,20-tetraazatetracyclo[13.5.2.1^2,5.0^18,21]tricosa-1(20),2(23),3,15(22),16,18(21)-hexaene], the IC50 is < 100 nM.

Consider `c1cc2[nH]nc3c2cc1OCCNCCCOc1cc-3cc(N2CCOCC2)c1` [Example 236, 4-(morpholin-4-yl)-7,14-dioxa-11,19,20-triazatetracyclo [13.5.2.1^2,6.0^18,21]tricosa-1(20),2,4,6(23),15,17,21-heptaene], for which the concentration for half-maximal inhibition (IC50) is < 10 nM.

In the case of `C[C@H]1COCCOCCn2cc(cc2C#N)-c2n[nH]c3ccc(cc23)O1` [Example 72, (13S)-13-methyl-8,11,14-trioxa-5,19,20-triazatetracyclo[13.5.2.1^2,5.0^18,21] tricosa-1(20),2(23),3,15(22),16,18(21)-hexaene-4-carbonitrile], the half-inhibitory concentration (IC50) is < 10 nM.

As to `C[C@H]1NCCOc2cccc(c2)-c2n[nH]c3ccc(cc23)OC[C@@H]1F` [Example 231, (11R,12R)-12-fluoro-11-methyl-7,14-dioxa-10,19,20-triazatetracyclo[13.5.2.1^2,6.0^18,21]tricosa-1(20),2,4,6(23),15(22),16,18(21)-heptaene], the half-maximal inhibitory concentration (IC50) is < 100 nM.

With `c1cc2[nH]nc3c2cc1OCCCNCCCn1ncc-3n1` [Example 182, 13-oxa-4,5,9,18,19,22-hexaazatetracyclo[12.5.2.1^2,5.0^17,20] docosa-1(19),2(22),3,14(21),15,17(20)-hexaene], the half-maximal inhibitory concentration (IC50) was < 10 nM.

Consider `C[C@@H]1OCCOCCn2cc(cn2)-c2n[nH]c3ccc(cc23)O[C@H]1C` [Example 114, (12S,13S)-12,13-dimethyl-8,11,14-trioxa-4,5,19,20-tetraazatetracyclo [13.5.2.1^2,5.0^18,21]tricosa-1(20),2(23),3,15(22),16,18(21)-hexaene], for which the IC50 was < 10 nM.

`C[C@@H]1C[C@H](C)OCCCOc2ccc3[nH]nc(c3c2)-c2cnn1c2` [Example 132, (6R,8S)-6,8-dimethyl-9,13-dioxa-4,5,18,19-tetraazatetracyclo[12.5.2.1^2,5.0^17,20]docosa-1(19),2(22),3,14(21),15,17(20)-hexaene]: the IC50 was < 100 nM.

As for `FC(F)(F)c1cc2cc(c1)-c1n[nH]c3ccc(cc13)OCCCNCCO2` [Example 186, 4-(trifluoromethyl)-7,14-dioxa-10,19,20-triazatetracyclo [13.5.2.1^2,6.0^18,21]tricosa-1(20),2,4,6(23),15,17,21-heptaene], the IC50 was < 10 nM.

Turning to `O=C1COc2cc(cc(N3CCC(F)(F)C3)c2)-c2n[nH]c3ccc(cc23)OCCCN1` [Example 206, 4-(3,3-difluoropyrrolidin-1-yl)-7,14-dioxa-10,19,20-triazatetracyclo[13.5.2.1^2,6.0^18,21]tricosa-1(20),2(23),3,5,15,17,21-heptaen-9-one], the IC50 was < 10 nM.

In the case of `O=C1COc2cc(cc(N3C[C@@H](F)[C@H](F)C3)c2)-c2n[nH]c3ccc(cc23)OCCCN1` [Example 216, 4-[(3R,4R)-3,4-difluoropyrrolidin-1-yl]-7,14-dioxa-10,19,20-triazatetracyclo[13.5.2.1^2,6.0^18,21]tricosa-1(20),2(23),3,5,15,17,21-heptaen-9-one], the 50% inhibitory concentration (IC50) was < 10 nM.

In the case of `C[C@@H]1CCNCCOc2cncc(c2)-c2n[nH]c3ccc(cc23)O1` [Example 163, (13R)-13-methyl-7,14-dioxa-4,10,19,20-tetraazatetracyclo[13.5.2.1^2,6.0^18,21]tricosa-1(20),2,4,6(23),15(22),16,18(21)-heptaene], the IC50 was < 10 nM.

Take `CN1CCCOc2ccc3[nH]nc(c3c2)-c2cncc(c2)OC(C)(C)C1=O` [Example 197, 8,8,10-trimethyl-7,14-dioxa-4,10,19,20-tetraazatetracyclo[13.5.2.1^2,6.0^18,21]tricosa-1(20),2(23),3,5,15(22),16,18(21)-heptaen-9-one]: the IC50 was < 100 nM.

For the compound `C[C@@H]1CNCCO[C@@H](C)c2cncc(c2)-c2n[nH]c3ccc(cc23)O1` (single isomer, unassigned) [Example 234, (7S or 7R,13R)-7,13-dimethyl-8,14-dioxa-4,11,19,20-tetraazatetracyclo[13.5.2.1^2,6.0^18,21]tricosa-1(20),2(23),3,5,15(22),16,18(21)-heptaene], the IC50 was < 1000 nM.

As to `c1cc2[nH]nc3c2cc1OCCCNCC1(CC1)Oc1cncc-3c1` [Example 157, 7′,14′-dioxa-4′,10′,19′,20′-tetraazaspiro[cyclopropane-1,8′-tetracyclo[13.5.2.1^2,6.0^18,21]tricosane]-1′(20′),2′(23′),3′,5′,15′,17′,21′-heptaene], the IC50 is < 10 nM.

For the compound `Cc1cc2nc(n1)OCCCOC[C@H](C)Oc1ccc3[nH]nc-2c3c1` [Example 29, (13S)-4,13-dimethyl-7,11,14-trioxa-5,19,20,23-tetraazatetracyclo[13.5.2.1^2,6.0^18,21]tricosa-1(20),2(23),3,5,15(22),16,18(21)-heptaene], the concentration for half-maximal inhibition (IC50) is < 10 nM.

`C[C@@H]1CCOCC(F)(F)Cn2cc(cn2)-c2n[nH]c3ccc(cc23)O1` [Example 120, (12R)-7,7-difluoro-12-methyl-9,13-dioxa-4,5,18,19-tetraazatetracyclo [12.5.2.1^2,5.0^17,20]docosa-1(19),2(22),3,14(21),15,17(20)-hexaene]: the IC50 was < 10 nM.

Take `c1cc2nc(c1)-c1n[nH]c3ccc(cc13)OCCCNCCO2` [Example 237, 7,14-dioxa-10,19,20,23-tetraazatetracyclo[13.5.2.1^2,6.0^18,21]tricosa-1(20),2,4,6(23),15,17,21-heptaene]: the IC50 is < 10 nM.
